From ChEMBL document CHEMBL1212786 (Antimicrob Agents Chemother, 2010)

Tests used:
[1] = Cmax in Sprague-Dawley rat at 2 mg/kg, iv after 24 hrs by LC/MS/MS analysis; assay type: ADME, organism-based; set-up: dose 2 mg/kg, route intravenous; settings: in vivo
[2] = AUC (0 to infinity) in Sprague-Dawley rat at 5 mg/kg, po after 24 hrs by LC/MS/MS analysis; assay type: ADME, organism-based; set-up: time infinity, dose 5 mg/kg, route oral; settings: plasma
[3] = Systemic clearance in Sprague-Dawley rat at 2 mg/kg, iv after 24 hrs by LC/MS/MS analysis; assay type: ADME, organism-based; set-up: dose 2 mg/kg, route intravenous; settings: in vivo
[4] = Cmax in Sprague-Dawley rat liver at 30 mg/kg, po by LC/MS/MS analysis; assay type: ADME, organism-based; set-up: dose 30 mg/kg, route oral
Hepatitis C virus [5] = test: microbe, parasite or virus in culture; settings: Huh-7, 48 h
Description: Antiviral activity against Hepatitis C virus infected in human Huh7ET cells assessed as inhibition of viral replication after 48 hrs by luciferase reporter gene assay

[6] = Tmax in Sprague-Dawley rat at 20 mg/kg, po by LC/MS/MS analysis; assay type: ADME, organism-based; set-up: dose 20 mg/kg, route oral; settings: in vivo
Liver microsomes = test: Intrinsic clearance in human liver microsomes at 1 uM after 5 to 30 mins by MS analysis in presence of NADPH; assay type: ADME, Microsome
[7] = Systemic clearance in monkey at 1 mg/kg, iv after 24 hrs by LC/MS/MS analysis; assay type: ADME, organism-based, Macaca mulatta; set-up: dose 1 mg/kg, route intravenous; settings: rhesus monkey, in vivo
Hepatocyte [8] = test: Cellular uptake in human hepatocytes assessed per mg of cellular protein association with hepatocyte fraction at 2.27 uM after 1 hr by LC/MS/MS analysis; assay type: ADME, cell-based
[9] = Cmax in Sprague-Dawley rat whole blood at 30 mg/kg, po by LC/MS/MS analysis; assay type: ADME, organism-based; set-up: dose 30 mg/kg, route oral
Hepatitis C virus [10] = test: microbe, parasite or virus in culture; settings: Huh-7, 24 h
Description: Antiviral activity against Hepatitis C virus infected in human Huh7ET cells assessed as inhibition of viral replication after 24 hrs by RT-PCR analysis

Hepatitis C virus [11] = test: Antiviral activity against Hepatitis C virus infected in human Huh7ET cells assessed as inhibition of viral replication after 72 hrs by luciferase reporter gene assay; assay type: functional, organism-based
[12] = Apparent elimination half life in Sprague-Dawley rat at 5 mg/kg, iv by LC/MS/MS analysis; assay type: ADME, organism-based; set-up: dose 5 mg/kg, route intravenous; settings: in vivo
[13] = Oral bioavailability in monkey at 15 mg/kg after 24 hrs by LC/MS/MS analysis; assay type: ADME, organism-based, Macaca mulatta; settings: rhesus monkey, in vivo
[14] = Oral bioavailability in Sprague-Dawley rat at 20 mg/kg after 24 hrs by LC/MS/MS analysis; assay type: ADME, organism-based; settings: in vivo
[15] = Half life in human liver microsomes at 1 uM after 5 to 30 mins by MS analysis in presence of NADPH; assay type: ADME, Microsome
Hepatitis C virus [16] = test: Antiviral activity against Hepatitis C virus infected in human Huh7ET cells assessed as inhibition of viral replication at 0.02 to 5 uM after 24 hrs by luciferase reporter gene assay; assay type: functional, Hepacivirus hominis, Huh-7
[17] = Systemic clearance in monkey at 1.4 mg/kg, iv after 24 hrs by LC/MS/MS analysis; assay type: ADME, organism-based, Macaca mulatta; set-up: dose 1.4 mg/kg, route intravenous; settings: rhesus monkey, in vivo
[18] = Cmax in monkey at 15 mg/kg, po after 24 hrs by LC/MS/MS analysis; assay type: ADME, organism-based, Macaca mulatta; set-up: dose 15 mg/kg, route oral; settings: rhesus monkey, in vivo
[19] = AUC (2 to 24 hrs) in Sprague-Dawley rat whole blood at 10 mg/kg, po by LC/MS/MS analysis; assay type: ADME, organism-based; set-up: time upper 24 hr, time lower 2 hr, dose 10 mg/kg, route oral
PBMC [20] = test: Cytotoxicity against human PBMC at 0.0031 uM after 18 hrs; assay type: cell-based
Jurkat = test: cells; settings: Homo sapiens
[21] = Cmax in monkey at 7.5 mg/kg, po after 24 hrs by LC/MS/MS analysis; assay type: ADME, organism-based, Macaca mulatta; set-up: dose 7.5 mg/kg, route oral; settings: rhesus monkey, in vivo
[22] = Apparent volume of distribution in monkey at 1 mg/kg, iv after 24 hrs by LC/MS/MS analysis; assay type: ADME, organism-based, Macaca mulatta; set-up: dose 1 mg/kg, route intravenous; settings: rhesus monkey, in vivo, read-out: Vz
[23] = Tmax in monkey at 15 mg/kg, po by LC/MS/MS analysis; assay type: ADME, organism-based, Macaca mulatta; set-up: dose 15 mg/kg, route oral; settings: rhesus monkey, in vivo
[24] = AUC (2 to 24 hrs) in Sprague-Dawley rat liver at 10 mg/kg, iv by LC/MS/MS analysis; assay type: ADME, organism-based; set-up: time 2-24 hr, dose 10 mg/kg, route intravenous
[25] = Apparent elimination half life Sprague-Dawley rat at 10 mg/kg, po after 24 hrs by LC/MS/MS analysis; assay type: ADME, organism-based; set-up: dose 10 mg/kg, route oral; settings: in vivo
[26] = Cytotoxicity against human Huh7ET cells assessed as lactate dehydrogenase release up to 5 uM after 72 hrs; assay type: cell-based; settings: huh-7, 72 h
[27] = AUC (0 to infinity) in monkey at 1.4 mg/kg, iv after 24 hrs by LC/MS/MS analysis; assay type: ADME, organism-based, Macaca mulatta; set-up: time infinity, dose 1.4 mg/kg, route intravenous; settings: rhesus monkey, plasma
[28] = Tmax in monkey at 5 mg/kg, po by LC/MS/MS analysis; assay type: ADME, organism-based, Macaca mulatta; set-up: dose 5 mg/kg, route oral; settings: rhesus monkey, in vivo
[29] = Cytotoxicity against human Huh7ET cells assessed as lactate dehydrogenase release up to 10 uM after 72 hrs; assay type: cell-based; settings: huh-7, 72 h
Hepatocyte [30] = test: Cellular uptake in human hepatocytes assessed per mg of cellular protein association with nonparenchymal fraction at 0.378 uM after 1 hr by LC/MS/MS analysis; assay type: ADME, cell-based
[31] = Cytotoxicity against human PBMC assessed as cell viability at 10 uM after 18 hrs relative to control; assay type: cell-based; settings: read-out: Activity
PBMC [32] = test: Antiinflammatory activity in human PBMC assessed as inhibition of anti-CD3/CD28 antibody-induced IL-2 production treated for 1 hr before anti-CD3/CD28 antibody challenge measured after 6 hrs by immunosuppression assay; assay type: functional, cell-based; settings: read-out: EC50
[33] = Cmax in Sprague-Dawley rat liver at 10 mg/kg, iv by LC/MS/MS analysis; assay type: ADME, organism-based; set-up: dose 10 mg/kg, route intravenous
[34] = AUC (0 to infinity) in Sprague-Dawley rat at 10 mg/kg, po after 24 hrs by LC/MS/MS analysis; assay type: ADME, organism-based; set-up: time infinity, dose 10 mg/kg, route oral; settings: plasma
[35] = AUC (0 to infinity) in monkey at 7.5 mg/kg, po after 24 hrs by LC/MS/MS analysis; assay type: ADME, organism-based, Macaca mulatta; set-up: dose 7.5 mg/kg, route oral, time infinity; settings: rhesus monkey, plasma
[36] = Apparent elimination half life in monkey at 5 mg/kg, po after 24 hrs by LC/MS/MS analysis; assay type: ADME, organism-based, Macaca mulatta; set-up: dose 5 mg/kg, route oral; settings: rhesus monkey, in vivo
[37] = Apparent elimination half life Sprague-Dawley rat at 5 mg/kg, po after 24 hrs by LC/MS/MS analysis; assay type: ADME, organism-based; set-up: dose 5 mg/kg, route oral; settings: in vivo
[38] = Apparent elimination half life in monkey at 1 mg/kg, iv by LC/MS/MS analysis; assay type: ADME, organism-based, Macaca mulatta; set-up: dose 1 mg/kg, route intravenous; settings: rhesus monkey, in vivo
Hepatitis C virus [39] = test: microbe, parasite or virus in culture; settings: Huh-7
Description: Antiviral activity against Hepatitis C virus infected in human Huh7ET cells assessed as suppression of full length viral RNA replication after 24 to 72 hrs by luciferase reporter gene assay

[40] = Apparent elimination half life in monkey at 15 mg/kg, po after 24 hrs by LC/MS/MS analysis; assay type: ADME, organism-based, Macaca mulatta; set-up: dose 15 mg/kg, route oral; settings: rhesus monkey, in vivo
Cytochrome P450 2C19 = Cytochrome P450 2C19 (Homo sapiens, UniProt P33261); test: Inhibition of human recombinant CYP2C19 after 30 mins; assay type: ADME
[41] = AUC (0 to infinity) in monkey at 15 mg/kg, po after 24 hrs by LC/MS/MS analysis; assay type: ADME, organism-based, Macaca mulatta; set-up: time infinity, dose 15 mg/kg, route oral; settings: rhesus monkey, plasma
[42] = AUC (0 to infinity) in Sprague-Dawley rat at 2 mg/kg, iv after 24 hrs by LC/MS/MS analysis; assay type: ADME, organism-based; set-up: time infinity, dose 2 mg/kg, route intravenous; settings: plasma
[43] = Systemic clearance in Sprague-Dawley rat at 5 mg/kg, iv after 24 hrs by LC/MS/MS analysis; assay type: ADME, organism-based; set-up: dose 5 mg/kg, route intravenous; settings: in vivo
Cytochrome P450 2D6 = Cytochrome P450 2D6 (Homo sapiens, UniProt P10635); test: Inhibition of human recombinant CYP2D6 after 30 mins; assay type: ADME
[44] = Oral bioavailability in monkey at 5 mg/kg after 24 hrs by LC/MS/MS analysis; assay type: ADME, organism-based, Macaca mulatta; settings: rhesus monkey, in vivo

Sequence of Cytochrome P450 2D6 (P10635 whole entry): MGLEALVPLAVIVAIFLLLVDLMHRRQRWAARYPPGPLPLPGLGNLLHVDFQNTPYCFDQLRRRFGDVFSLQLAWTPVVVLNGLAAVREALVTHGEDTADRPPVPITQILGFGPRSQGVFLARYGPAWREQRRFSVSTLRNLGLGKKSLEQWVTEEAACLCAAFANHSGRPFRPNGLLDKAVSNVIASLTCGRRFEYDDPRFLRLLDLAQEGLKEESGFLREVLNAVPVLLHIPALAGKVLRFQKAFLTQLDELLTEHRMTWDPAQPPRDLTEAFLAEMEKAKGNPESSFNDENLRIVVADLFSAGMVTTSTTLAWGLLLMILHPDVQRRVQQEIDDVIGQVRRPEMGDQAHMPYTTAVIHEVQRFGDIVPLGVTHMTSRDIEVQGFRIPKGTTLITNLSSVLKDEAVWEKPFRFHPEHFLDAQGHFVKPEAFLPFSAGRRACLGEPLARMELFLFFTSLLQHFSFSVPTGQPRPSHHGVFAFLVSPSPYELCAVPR
Sequence of Cytochrome P450 2C19 (P33261 whole entry): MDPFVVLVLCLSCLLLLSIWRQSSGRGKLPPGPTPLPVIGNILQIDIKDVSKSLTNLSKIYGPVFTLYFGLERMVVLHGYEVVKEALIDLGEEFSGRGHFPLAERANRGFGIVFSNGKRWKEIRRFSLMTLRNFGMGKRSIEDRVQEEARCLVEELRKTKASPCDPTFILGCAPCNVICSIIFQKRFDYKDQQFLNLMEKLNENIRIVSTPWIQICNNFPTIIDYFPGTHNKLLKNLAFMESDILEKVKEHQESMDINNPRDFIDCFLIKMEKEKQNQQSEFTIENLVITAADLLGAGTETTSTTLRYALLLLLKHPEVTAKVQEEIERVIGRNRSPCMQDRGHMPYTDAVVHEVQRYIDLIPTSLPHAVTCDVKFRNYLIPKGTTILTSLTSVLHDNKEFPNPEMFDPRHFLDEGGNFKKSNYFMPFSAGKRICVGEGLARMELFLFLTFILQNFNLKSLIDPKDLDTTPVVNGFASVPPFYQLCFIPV

SMILES: C/C=C/C[C@@H](C)[C@@H](O)[C@H]1C(=O)N[C@@H](CC)C(=O)N(C)C(SCCN(C)C)C(=O)N(C)[C@@H](CC(C)(C)O)C(=O)N[C@@H](C(C)C)C(=O)N(C)[C@@H](CC(C)C)C(=O)N[C@@H](C)C(=O)N[C@H](C)C(=O)N(C)[C@@H](CC(C)C)C(=O)N(C)[C@@H](CC(C)C)C(=O)N(C)[C@@H](C(C)C)C(=O)N1C (single isomer, unassigned) [SCY 635]
- Cmax [1]: 1510 ng/mL
- AUC(0-inf) [2]: 13000 ng·h/mL
- clearance [3]: 1.48 mL/min/kg
- Cmax [4]: 16800 ng/mL
- EC50 (Hepatitis C virus [5]): 70 nM
- Tmax [6]: 4 h
- clearance (Liver microsomes): 14 µL/min/mg
- clearance [7]: 0.528 mL/min/kg
- Drug uptake (Hepatocyte [8]): 6.05 ng/mg
- Cmax [9]: 2220 ng/mL
- EC50 (Hepatitis C virus [10]): 120 nM
- Activity (Hepatitis C virus [11]; Hepacivirus hominis, Huh-7): Dose-dependent effect
- EC90 (Hepatitis C virus [11]; Huh-7, 72 h): 350 nM
- half-life [12]: 22.2 h
- bioavailability [13]: 11.1%
- bioavailability [14]: 18.9%
- half-life at 1 µM [15]: 1.05 h
- inhibition (INH) (Hepatitis C virus [16]): 70%
- clearance [17]: 0.47 mL/min/kg
- Cmax [18]: 2430 ng/mL
- AUC(0-t) [19]: 18000 ng·h/mL
- Activity (PBMC [20]): Non-toxic
- EC50 (Jurkat): 9900 nM
- Cmax [21]: 1930 ng/mL
- Vd [22]: 1.02 L/kg
- Tmax [23]: 2 h
- AUC(0-t) [24]: 139000 ng·h/mL
- half-life [25]: 21.4 h
- Activity [26]: Non-toxic
- AUC(0-inf) [27]: 49900 ng·h/mL
- Tmax [28]: 2 h
- Activity [29]: Non-toxic
- Drug uptake (Hepatocyte [30]): 0.55 ng/mg
- viability at 18 h, 10 µM [31]: 10.9%
- EC50 (PBMC [32]): 5300 nM
- Cmax [33]: 13500 ng/mL
- AUC(0-inf) [34]: 26500 ng·h/mL
- AUC(0-inf) [35]: 42000 ng·h/mL
- half-life [36]: 24.6 h
- half-life [37]: 19.2 h
- half-life [38]: 22.3 h
- EC50 (Hepatitis C virus [39]): 130 nM
- half-life [40]: 43.3 h
- IC50 (Cytochrome P450 2C19): 12400 nM
- AUC(0-inf) [41]: 59200 ng·h/mL
- AUC(0-inf) [42]: 22500 ng·h/mL
- clearance [43]: 2.23 mL/min/kg
- IC50 (Cytochrome P450 2D6): > 100000 nM
- bioavailability [44]: 17.7%
